Assay results from patent US12139492B2 (Endotarget Inc., priority 2021, dated 2024).

Columns and labels:
Format in all cases: cell-based
Mino cells = test: Antiproliferative effect, MTS cell viability assay, Mino cells; details: Homo sapiens, MINO, Mino mantle cell lymphoma cells; read-out: IC50 (anti-proliferation) Mino cells
In short: (§1)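 Tested at six concentrations (0 to 10 μM in tenfold steps), 72 h; viability by MTS, A490.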

JeKo-1 cells = test: Antiproliferative effect, MTS cell viability assay, JeKo-1 cells; details: Homo sapiens; JeKo-1 mantle cell lymphoma cells; read-out: IC50 (anti-proliferation) JeKO-1 cells
In short: as §1

BTK = BTK (Homo sapiens, UniProt Q06187); test: BTK degradation, DC50 and Dmax of Table 1 (cell line not given); design: endogenous in cells; details: for DC50: concentration giving 50% reduction of BTK expression level
Sequence of BTK (Q06187 whole entry): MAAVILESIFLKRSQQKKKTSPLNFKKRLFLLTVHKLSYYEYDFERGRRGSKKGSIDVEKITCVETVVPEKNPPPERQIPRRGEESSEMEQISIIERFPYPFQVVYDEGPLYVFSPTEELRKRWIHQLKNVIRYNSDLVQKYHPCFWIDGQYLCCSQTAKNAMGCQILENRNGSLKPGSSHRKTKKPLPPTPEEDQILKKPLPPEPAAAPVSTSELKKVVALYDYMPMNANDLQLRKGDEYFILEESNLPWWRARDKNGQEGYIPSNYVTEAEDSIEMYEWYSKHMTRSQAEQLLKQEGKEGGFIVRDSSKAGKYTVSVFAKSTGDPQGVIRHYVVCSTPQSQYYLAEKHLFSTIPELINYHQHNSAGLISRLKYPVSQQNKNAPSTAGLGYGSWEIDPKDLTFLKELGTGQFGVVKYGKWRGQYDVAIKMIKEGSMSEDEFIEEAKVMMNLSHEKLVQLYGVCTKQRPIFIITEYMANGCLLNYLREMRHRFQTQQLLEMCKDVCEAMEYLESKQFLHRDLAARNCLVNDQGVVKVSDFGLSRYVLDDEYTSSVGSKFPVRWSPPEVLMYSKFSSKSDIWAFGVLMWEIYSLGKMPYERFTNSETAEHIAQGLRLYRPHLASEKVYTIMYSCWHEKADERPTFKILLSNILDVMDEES

Nc1ncnc2c1c(-c1ccc(Oc3ccccc3)cc1)nn2[C@@H]1CCCN(C2CCN(CCC3CCN(c4ccc5c(c4)CN(C4CCC(=O)NC4=O)C5=O)CC3)CC2)C1 (stereo partly drawn) [Compound 146, 3-(5-(4-(2-((R)-3-(4-amino-3-(4-phenoxyphenyl)-1H-pyrazolo[3,4-d]pyrimidin-1-yl)-[1,4′-bipiperidin]-1′-yl)ethyl)piperidin-1-yl)-1-oxoisoindolin-2-yl)piperidine-2,6-dione]
IC50 (Mino cells): 1 to 10 µM | IC50 (JeKo-1 cells): > 10 µM | Dmax (BTK): > 75% | DC50 (BTK): > 0.05 µM

Nc1ncnc2c1c(-c1ccc(Oc3ccccc3)cc1)nn2[C@@H]1CCCN(C2CCN(CCCC3CCN(c4ccc5c(c4)CN(C4CCC(=O)NC4=O)C5=O)CC3)CC2)C1 (stereo partly drawn) [Compound 156, 3-(5-(4-(3-((R)-3-(4-amino-3-(4-phenoxyphenyl)-1H-pyrazolo[3,4-d]pyrimidin-1-yl)-[1,4′-bipiperidin]-1′-yl)propyl)piperidin-1-yl)-1-oxoisoindolin-2-yl)piperidine-2,6-dione]
IC50 (Mino cells): > 10 µM | IC50 (JeKo-1 cells): > 10 µM | Dmax (BTK): > 50% | DC50 (BTK): > 0.05 µM

Nc1ncnc2c1c(-c1ccc(Oc3ccccc3)cc1)nn2[C@@H]1CCCN(C2CCN(C(=O)N3CCC(c4ccc5c(c4)C(=O)N(C4CCC(=O)NC4=O)C5=O)CC3)CC2)C1 (stereo partly drawn) [Compound 157, 5-(1-((R)-3-(4-amino-3-(4-phenoxyphenyl)-1H-pyrazolo[3,4-d]pyrimidin-1-yl)-[1,4′-bipiperidine]-1′-carbonyl)piperidin-4-yl)-2-(2,6-dioxopiperidin-3-yl)isoindoline-1,3-dione]
IC50 (Mino cells): > 10 µM | IC50 (JeKo-1 cells): > 10 µM | Dmax (BTK): > 50% | DC50 (BTK): > 0.05 µM

Nc1ncnc2c1c(-c1ccc(Oc3ccccc3)cc1)nn2[C@@H]1CCCN(C(=O)N2CCC(CCCC3CCN(c4ccc5c(c4)C(=O)N(C4CCC(=O)NC4=O)C5=O)CC3)CC2)C1 (stereo partly drawn) [Compound 113, 5-(4-(3-(1-((R)-3-(4-amino-3-(4-phenoxyphenyl)-1H-pyrazolo[3,4-d]pyrimidin-1-yl)piperidine-1-carbonyl)piperidin-4-yl)propyl)piperidin-1-yl)-2-(2,6-dioxopiperidin-3-yl)isoindoline-1,3-dione]
IC50 (Mino cells): 1 to 10 µM | IC50 (JeKo-1 cells): > 10 µM | Dmax (BTK): > 75% | DC50 (BTK): > 0.05 µM

Nc1ncnc2c1c(-c1ccc(Oc3ccccc3)cc1)nn2[C@@H]1CCCN(CC2CCN(CCN3CCN(c4ccc5c(c4)CN(C4CCC(=O)NC4=O)C5=O)CC3)CC2)C1 (stereo partly drawn) [Compound 134, 3-(5-(4-(2-(4-(((R)-3-(4-amino-3-(4-phenoxyphenyl)-1H-pyrazolo[3,4-d]pyrimidin-1-yl)piperidin-1-yl)methyl)piperidin-1-yl)ethyl)piperazin-1-yl)-1-oxoisoindolin-2-yl)piperidine-2,6-dione]
IC50 (Mino cells): 1 to 10 µM | IC50 (JeKo-1 cells): 1 to 10 µM | Dmax (BTK): > 75% | DC50 (BTK): 0.01 to 0.05 µM

Nc1ncnc2c1c(-c1ccc(Oc3ccccc3)cc1)nn2[C@@H]1CCCN(CC2CCN(CCCC3CCN(c4ccc5c(c4)CN(C4CCC(=O)NC4=O)C5=O)CC3)CC2)C1 (stereo partly drawn) [Compound 142, 3-(5-(4-(3-(4-(((R)-3-(4-amino-3-(4-phenoxyphenyl)-1H-pyrazolo[3,4-d]pyrimidin-1-yl)piperidin-1-yl)methyl)piperidin-1-yl)propyl)piperidin-1-yl)-1-oxoisoindolin-2-yl)piperidine-2,6-dione]
IC50 (Mino cells): 1 to 10 µM | IC50 (JeKo-1 cells): > 10 µM | Dmax (BTK): > 75% | DC50 (BTK): 0.01 to 0.05 µM

Nc1ncnc2c1c(-c1ccc(Oc3ccccc3)cc1)nn2[C@@H]1CCCN(CC2CCN(C(=O)N3CCC(CN4CCN(c5ccc6c(c5)CN(C5CCC(=O)NC5=O)C6=O)CC4)CC3)CC2)C1 (stereo partly drawn) [Compound 32, 3-(5-(4-((1-(4-(((R)-3-(4-amino-3-(4-phenoxyphenyl)-1H-pyrazolo[3,4-d]pyrimidin-1-yl)piperidin-1-yl)methyl)piperidine-1-carbonyl)piperidin-4-yl)methyl)piperazin-1-yl)-1-oxoisoindolin-2-yl)piperidine-2,6-dione]
IC50 (Mino cells): 1 to 10 µM | IC50 (JeKo-1 cells): 1 to 10 µM | Dmax (BTK): > 90% | DC50 (BTK): 0.01 to 0.05 µM

Nc1ncnc2c1c(-c1ccc(Oc3ccccc3)cc1)nn2[C@@H]1CCCN(CC2CCN(C(=O)N3CCC(C4CCN(c5ccc6c(c5)CN(C5CCC(=O)NC5=O)C6=O)CC4)CC3)CC2)C1 (stereo partly drawn) [Compound 30, 3-(5-(1′-(4-(((R)-3-(4-amino-3-(4-phenoxyphenyl)-1H-pyrazolo[3,4-d]pyrimidin-1-yl)piperidin-1-yl)methyl)piperidine-1-carbonyl)-[4,4′-bipiperidin]-1-yl)-1-oxoisoindolin-2-yl)piperidine-2,6-dione]
IC50 (Mino cells): 1 to 10 µM | IC50 (JeKo-1 cells): 1 to 10 µM | Dmax (BTK): > 90% | DC50 (BTK): 0.01 to 0.05 µM

Nc1ncnc2c1c(-c1ccc(Oc3ccccc3)cc1)nn2C1CCN(CCOCCC2CCN(c3ccc4c(c3)C(=O)N(C3CCC(=O)NC3=O)C4=O)CC2)CC1 (stereo not shown) [Compound 19, 5-(4-(2-(2-(4-(4-amino-3-(4-phenoxyphenyl)-1H-pyrazolo[3,4-d]pyrimidin-1-yl)piperidin-1-yl)ethoxy)ethyl)piperidin-1-yl)-2-(2,6-dioxopiperidin-3-yl)isoindoline-1,3-dione]
IC50 (Mino cells): 1 to 10 µM | IC50 (JeKo-1 cells): 1 to 10 µM | Dmax (BTK): > 90% | DC50 (BTK): 0.01 to 0.05 µM

Nc1ncnc2c1c(-c1ccc(Oc3ccccc3)cc1)nn2C1CCN(C(=O)N2CCC(CCCN3CCN(c4ccc5c(c4)CN(C4CCC(=O)NC4=O)C5=O)CC3)CC2)CC1 (stereo not shown) [Compound 118, 3-(5-(4-(3-(1-(4-(4-amino-3-(4-phenoxyphenyl)-1H-pyrazolo[3,4-d]pyrimidin-1-yl)piperidine-1-carbonyl)piperidin-4-yl)propyl)piperazin-1-yl)-1-oxoisoindolin-2-yl)piperidine-2,6-dione]
IC50 (Mino cells): > 10 µM | IC50 (JeKo-1 cells): 1 to 10 µM | Dmax (BTK): > 75% | DC50 (BTK): > 0.05 µM

Nc1ncnc2c1c(-c1ccc(Oc3ccccc3)cc1)nn2[C@@H]1CCCN(C2CCN(CCN3CCN(c4ccc5c(c4)CN(C4CCC(=O)NC4=O)C5=O)CC3)CC2)C1 (stereo partly drawn) [Compound 148, 3-(5-(4-(2-((R)-3-(4-amino-3-(4-phenoxyphenyl)-1H-pyrazolo[3,4-d]pyrimidin-1-yl)-[1,4′-bipiperidin]-1′-yl)ethyl)piperazin-1-yl)-1-oxoisoindolin-2-yl)piperidine-2,6-dione]
IC50 (Mino cells): 1 to 10 µM | IC50 (JeKo-1 cells): > 10 µM | Dmax (BTK): > 75% | DC50 (BTK): 0.01 to 0.05 µM

Nc1ncnc2c1c(-c1ccc(Oc3ccccc3)cc1)nn2C1CCN(C(=O)N2CCC(c3ccc4c(c3)CN(C3CCC(=O)NC3=O)C4=O)CC2)CC1 (stereo not shown) [Compound 78, 3-(5-(1-(4-(4-amino-3-(4-phenoxyphenyl)-1H-pyrazolo[3,4-d]pyrimidin-1-yl)piperidine-1-carbonyl)piperidin-4-yl)-1-oxoisoindolin-2-yl)piperidine-2,6-dione]
IC50 (Mino cells): > 10 µM | IC50 (JeKo-1 cells): > 10 µM | Dmax (BTK): > 50% | DC50 (BTK): > 0.05 µM

Nc1ncnc2c1c(-c1ccc(Oc3ccccc3)cc1)nn2[C@@H]1CCCN(C2CCN(C(=O)N3CCN(CCCN4CCN(c5ccc6c(c5)CN(C5CCC(=O)NC5=O)C6=O)CC4)CC3)CC2)C1 (stereo partly drawn) [Compound 188, 3-(5-(4-(3-(4-((R)-3-(4-amino-3-(4-phenoxyphenyl)-1H-pyrazolo[3,4-d]pyrimidin-1-yl)-[1,4′-bipiperidine]-1′-carbonyl)piperazin-1-yl)propyl)piperazin-1-yl)-1-oxoisoindolin-2-yl)piperidine-2,6-dione]
IC50 (Mino cells): 1 to 10 µM | IC50 (JeKo-1 cells): 1 to 10 µM | Dmax (BTK): > 75% | DC50 (BTK): > 0.05 µM
